These results are taken from patent US20260216347A1, “Substituted Imidazo-Based Compounds as Ligand Directed Degraders of IRAK3” (Celgene Corporation, priority 2022, published 2026).

The target of one assay is T1, IRAK3 (Homo sapiens, UniProt Q9Y616).
T1 construct: IRAK Endogenous HTRF Degradation Assay; endogenous in cells
T1 sequence (Q9Y616 1-596): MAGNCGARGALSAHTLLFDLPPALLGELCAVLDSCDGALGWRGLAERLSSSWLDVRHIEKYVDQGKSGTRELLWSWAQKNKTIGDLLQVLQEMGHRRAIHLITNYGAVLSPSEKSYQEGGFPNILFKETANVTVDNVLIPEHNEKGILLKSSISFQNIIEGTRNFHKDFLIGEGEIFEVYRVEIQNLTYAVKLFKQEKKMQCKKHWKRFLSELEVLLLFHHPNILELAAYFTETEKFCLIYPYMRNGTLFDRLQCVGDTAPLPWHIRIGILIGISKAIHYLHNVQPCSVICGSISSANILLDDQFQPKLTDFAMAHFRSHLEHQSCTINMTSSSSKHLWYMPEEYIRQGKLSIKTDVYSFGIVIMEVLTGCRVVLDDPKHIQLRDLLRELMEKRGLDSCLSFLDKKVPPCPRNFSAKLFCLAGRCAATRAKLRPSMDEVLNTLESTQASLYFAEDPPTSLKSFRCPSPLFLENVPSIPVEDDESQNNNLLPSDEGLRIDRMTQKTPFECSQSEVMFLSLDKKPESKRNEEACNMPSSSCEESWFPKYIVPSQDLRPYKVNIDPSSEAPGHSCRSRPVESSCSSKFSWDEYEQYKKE
As to the kind of experiment: IRAK3 biochemical binding assay (LanthaScreen Eu Kinase Binding, TR-FRET). The protocol:
Example B3. IRAK3 Biochemical Binding Assay
The LanthaScreen® Eu Kinase Binding assay was performed as described by the vendor (ThermoFisher Scientific Waltham, MA). Briefly, 100× solutions of compound were prepared in DMSO via serial dilution of the 10 mM stock solution in a 384-well reagent plate using 3-fold intervals to achieve final concentrations. 1 μL of the compound dilution series were added to the corresponding wells of a 384-well reagent plate containing 32.3 μL of 1× buffer (50 mM HEPES pH 7.4, […], 1 mM EGTA, 0.01% Brij-35). 5 μL of the buffer diluted compounds were transferred to the corresponding wells of a 384-well assay plate. 5 μL of 3× tracer was transferred to each well of the assay plate for a final tracer concentration of 10 nM. Finally, 5 μL of the 3×Eu-Anti-GST and IRAK3 mix was transferred to each well for a final concentration of 2 nM and 10 nM respectively. Reactions were allowed to incubate for 1 hour at room temperature. TR-FRET signal of the interaction (λex340/λem 665/λem 615) was read at room temperature with a delay time of 100 ρs and an integration time of 200 ρs using an Envision plate reader. Background corrected emission signal ratios at each compound concentration were used to calculate percentage of inhibition (% Inhibition). Plots of % Inhibition versus inhibitor concentrations were fit according to a dose-response equation (Eq. 1) to generate IC50 and Hill slope values using Dotmatics software (Dotmatics, Bishops Stortford, Hertfordshire, England).
Using these assays, IC50, Dmax, EC50, and DC50 values of the following compounds were determined. Dmax is defined as the maximum percent degradation achieved and DC50 is the concentration at which 50% degradation is achieved.

In the next assay the target is T2, IRAK3-ePL (Homo sapiens, UniProt Q9Y616).
T2 construct: expressed in transfected cells; host or cells: 293T CRBN OE/GSPT1 G575N KI cells, lentiviral transduction, puromycin selected
The assay is described as follows: IRAK3-ePL overexpressing degradation assay (InCELL Hunter luminescence, dose response). The class given is cell-based. To be noted: for IRAK3 ePL degradation Ymin: lowest percentage of target protein remaining following compound treatment; for DC50: read-out: IRAK3 ePL degradation EC50. The protocol:
Example B1. IRAK3-ePL Overexpressing Degradation Assay
Stable cell lines were generated by the following protocol. 3×10^5 Lenti-X 293T cells (Clonetech) were plated in 0.8 mL of media in a 12-well plate and incubated overnight at 37° C./5% CO2. Packaging plasmid (0.4 μg, pMD), envelope plasmid (0.4 μg, pSP), and lentiviral transfer IRAK3-ePL plasmid (0.8 μg, TRAK3 sequence NM_007199.3) were mixed in 0.1 mL of Opti-MEM and incubated for 5 min. Simultaneously, 2.4 μL of Lipofectamine 2000 (Invitrogen) was added to 0.1 mL of Opti-MEM (Gibco) and incubated for 5 min. The plasmid DNA and lipofectamine were combined and the mixture was allowed to incubate for 20 min.DNA:Lipofectamine Opti-MEM mixtures were then added to previously plated cells dropwise and the cells were incubated for ~16 h at 37° C./5% CO2. Following incubation, the media was removed and 1.2 mL of fresh media was added per well. Lenti-X 293T cells were incubated for ~30 h at 37° C./5% CO2. […] Following incubation, media was removed from the Lenti-X 293T wells and passed through a […] filter. Part of the viral supernatant was used to transduce cells and the rest was stored at −80° C. Viruses were then added individually (0.5 mL virus) to each well of the 293T^CRBN OE/GSPT1 G575N KI cells, followed by addition of polybrene (10 mg/mL Millipore) to each well at a final concentration of 5.0 μg/mL. Cells were incubated for ~24 h at 37° C./5% CO2. After aspirating media off plates, cells were washed with DPBS, trypsinized and plated in a 10 cm dish in 15 mL of media and […] puromycin. Following incubation of cells for ~72 h at 37° C./5% CO2, media was aspirated off plates, and cells were washed with DPBS and trypsinized. The cells were plated in a 15 cm dish in 40 mL of media with 1.0 μg/mL Puromycin (Gibco) and incubated for ~72 h at 37° C./5% CO2. Following incubation, media was removed and cells were washed with DPBS and trypsinized. The majority of cells were resuspended in Invitrogen freezing media and stored away (~6-8×10^6 cells/vial).
IRAK3-ePL cellular dose response curve degradation assays were performed by the following protocol. Compounds to be tested were dispensed into a white 384-well tissue-culture treated plate using an acoustic liquid handler. Dilutions were prepared based on a 25 μL assay volume in duplicate 10 point 3-fold serial dilutions starting with a 10 μM dose. Negative control wells were included, which only contain 0.2% DMSO to calculate 100% signal. Positive control wells containing 30 μM Ataluren (luciferase inhibitor) were included to calculate the background signal level. All wells were backfilled to a final DMSO concentration of 0.2% to ensure DMSO uniformity across wells. IRAK3-ePL expressing cells (IRAK3-ePL Lenti-X 293T^CRBN/GSPT1 G575N) were washed, trypsinized, counted, and resuspended in fresh DMEM (Gibco) to give a cell concentration of 200,000 cells/mL. 25 μL of cells (5,000 cells/well) were dispensed into the wells of the 384-well plate prespotted with compounds in the previous step and incubated overnight at 37° C./5% CO2. Following incubation, the 384-well plate was taken out of the incubator and left at room temperature for 30 min. InCELL hunter reagent was prepared according to manufacturer's instructions (EA reagent, lysis buffer, and substrate reagent in a 1:1:4 ratio, Cat #96-0002, DiscoverX), which was added to the 384-well plate 25 μL per well. Following the incubation of the plate for 1 h at room temperature, the luminescence signal was read using a ViewLux plate reader. Data was processed and analyzed in ActivityBase software. In short, the average luminescence values of the positive control wells were subtracted from the rest of the wells for background correction, and all luminescence values were normalized to the DMSO control wells. The average value of the DMSO control wells was set to equal 100% of the relative IRAK3-ePL protein levels. […]

For the compound `COc1ccc(-c2cnc(Nc3cnn(C4CCN(CCN5CCN(c6ccc(C7CCC(=O)NC7=O)cc6)CC5)CC4)c3)c3nccn23)cc1` (stereo not shown) [Compound 87, 3-(4-(4-(2-(4-(4-((5-(4-methoxyphenyl)imidazo[1,2-a]pyrazin-8-yl)amino)-1H-pyrazol-1-yl)piperidin-1-yl)ethyl)piperazin-1-yl)phenyl) piperidine-2,6-dione], the IC50 at IRAK3 stood at 4 nM. Consider `Cc1cc(-c2cnc(Nc3cnn([C@H]4C[C@H](CCN5CCN(c6ccc(C7CCC(=O)NC7=O)cc6)CC5)C4)c3)c3nccn23)c(F)cc1F` (stereo partly drawn) [Compound 66, 3-(4-(4-(2-((trans)-3-(4-((5-(2,4-difluoro-5-methylphenyl)imidazo[1,2-a]pyrazin-8-yl)amino)-1H-pyrazol-1-yl)cyclobutyl)ethyl)piperazin-1-yl)phenyl) piperidine-2,6-dione], for which, on IRAK3-ePL, the “IRAK3 ePL degradation Ymin” value stood at 32% and the DC50 was determined as 9.6 nM. For `O=C1CCC(c2ccc(N3CCN(CC[C@H]4CC[C@H](n5cc(Nc6ncc(-c7cnn8c7CCCC8)n7ccnc67)cn5)CC4)CC3)cc2)C(=O)N1` (stereo partly shown) [Compound 118], the IC50 on IRAK3 is 0.1 nM.

Consider `Cc1nc(Nc2cnn(C3CCN(CCN4CCN(c5ccc(C6CCC(=O)NC6=O)cc5)CC4)CC3)c2)c2nccn2c1C` (stereo not shown) [Compound 84, 3-(4-(4-(2-(4-(4-((5,6-dimethylimidazo[1,2-a]pyrazin-8-yl)amino)-1H-pyrazol-1-yl)piperidin-1-yl)ethyl)piperazin-1-yl)phenyl)piperidine-2,6-dione], for which, on IRAK3, the IC50 came out at 24 nM. This IC50 lies about 240-fold higher than the previous one. On to `CN1CCOc2ccc(-c3cnc(Nc4cnn(C5CCN(CCN6CCN(c7ccc(C8CCC(=O)NC8=O)cc7)CC6)CC5)c4)c4nccn34)cc21` (stereo not shown) [Compound 48, 3-(4-(4-(2-(4-(4-((5-(4-methyl-3,4-dihydro-2H-benzo[b][1,4]oxazin-6-yl)imidazo[1,2-a]pyrazin-8-yl)amino)-1H-pyrazol-1-yl)piperidin-1-yl)ethyl)piperazin-1-yl)phenyl) piperidine-2,6-dione], for which, at IRAK3-ePL, the “IRAK3 ePL degradation Ymin” value is given as 24% and the DC50 was 0.77 nM.

As to `Cc1cc(-c2cnc(Nc3cnn([C@H]4CC[C@H](CN5CCN(c6ccc(C7CCC(=O)NC7=O)cc6)CC5)CC4)c3)c3nccn23)c(F)cc1F` (stereo partly drawn) [Compound 67, 3-(4-(4-(((trans)-4-(4-((5-(2,4-difluoro-5-methylphenyl)imidazo[1,2-a]pyrazin-8-yl)amino)-1H-pyrazol-1-yl)cyclohexyl)methyl)piperazin-1-yl)phenyl) piperidine-2,6-dione], on IRAK3-ePL, the “IRAK3 ePL degradation Ymin” value is reported as 38% and the DC50 was 5.5 nM.

On to `O=C1CCC(c2ccc(N3CCN(CC[C@H]4CC[C@H](n5cc(Nc6ncc(C7CC7)n7ccnc67)cn5)CC4)CC3)cc2)C(=O)N1` (stereo partly drawn) [Compound 47, 3-(4-(4-(2-((trans)-4-(4-((5-cyclopropylimidazo[1,2-a]pyrazin-8-yl)amino)-1H-pyrazol-1-yl)cyclohexyl)ethyl)piperazin-1-yl)phenyl) piperidine-2,6-dione], for which, at IRAK3-ePL, the “IRAK3 ePL degradation Ymin” value is on record as 23% and the DC50 worked out at 0.61 nM. For `Cc1cc(-c2cnc(Nc3cnn(C4CCN(CCN5CCN(c6ccc(C7CCC(=O)NC7=O)cc6Cl)CC5)CC4)c3)c3nccn23)c(F)cc1F` (stereo not shown) [Compound 43, 3-(3-chloro-4-(4-(2-(4-(4-((5-(2,4-difluoro-5-methylphenyl)imdazo [1,2-a]pyrazin-8-yl)amino)-1H-pyrazol-1-yl)piperidin-1-yl)ethyl)piperazin-1-yl)phenyl) piperidine-2,6-dione], at IRAK3-ePL, the “IRAK3 ePL degradation Ymin” value amounted to 24% and the DC50 was found to be 2.8 nM.

Turning to `O=C1CCC(c2ccc(N3CCN(CCN4CCC(n5cc(Nc6ncc(C7CC7)n7ccnc67)cn5)CC4)CC3)cc2)C(=O)N1` (stereo not shown) [Compound 46, 3-(4-(4-(2-(4-(4-((5-cyclopropylimidazo[1,2-a]pyrazin-8-yl)amino)-1H-pyrazol-1-yl)piperidin-1-yl)ethyl)piperazin-1-yl)phenyl) piperidine-2,6-dione], on IRAK3-ePL, the “IRAK3 ePL degradation Ymin” value was 24% and the DC50 was found to be 0.51 nM. As for `O=C1CCC(c2ccc(N3CCN(CCN4CCC(n5cc(Nc6ncc(C7=CCCC7)n7ccnc67)cn5)CC4)CC3)cc2)C(=O)N1` (stereo not shown) [Compound 68, 3-(4-(4-(2-(4-(4-((5-(cyclopent-1-en-1-yl)imidazo[1,2-a]pyrazin-8-yl)amino)-1H-pyrazol-1-yl)piperidin-1-yl)ethyl)piperazin-1-yl)phenyl) piperidine-2,6-dione], on IRAK3-ePL, the “IRAK3 ePL degradation Ymin” value was 24% and the DC50 came to 0.54 nM. In the case of `Cc1cc(-c2cnc(Nc3cnn(C4CCN(CCN5CCN(c6ccc(C7CCC(=O)NC7=O)cc6F)CC5)CC4)c3)c3nccn23)c(F)cc1F` (stereo not shown) [Compound 49, 3-(4-(4-(2-(4-(4-((5-(2,4-difluoro-5-methylphenyl)imdazo [1,2-a]pyrazin-8-yl)amino)-1H-pyrazol-1-yl)piperidin-1-yl)ethyl)piperazin-1-yl)-3-fluorophenyl)piper idine-2,6-dione], at IRAK3-ePL, the “IRAK3 ePL degradation Ymin” value was found to be 24% and the DC50 worked out at 2.4 nM.
